Reference: publication PMC5429796, “Engineered P450 biocatalysts show improved activity and regio-promiscuity in aromatic nitration” (Scientific Reports, 2017)

What was measured:
TxtE [1] = molecular target: T1, TxtE (Streptomyces scabiei, UniProt C9ZDC6); test: UV-Vis difference spectroscopy (Type I shift) titration of Trp analogues to 1.5 µM purified P450 in 25 mM Tris-HCl, pH 8.0, fitted to Michaelis-Menten type equation; at least three repeats.; type: binding; settings: n = 3
T1 construct: wild type, pET28b construct, Ni-NTA purified
T1 sequence (C9ZDC6 1-406): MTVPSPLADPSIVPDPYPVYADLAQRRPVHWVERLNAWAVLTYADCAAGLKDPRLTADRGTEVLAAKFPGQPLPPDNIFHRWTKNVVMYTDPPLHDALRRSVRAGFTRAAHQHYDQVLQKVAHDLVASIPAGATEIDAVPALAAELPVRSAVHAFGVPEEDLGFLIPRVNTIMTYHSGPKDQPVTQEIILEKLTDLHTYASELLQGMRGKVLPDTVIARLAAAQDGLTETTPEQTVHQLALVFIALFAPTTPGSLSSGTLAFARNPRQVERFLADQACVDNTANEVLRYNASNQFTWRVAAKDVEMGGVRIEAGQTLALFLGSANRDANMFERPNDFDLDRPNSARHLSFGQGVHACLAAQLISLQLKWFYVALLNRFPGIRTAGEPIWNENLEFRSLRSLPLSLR
Protocol: (§1) The ferric heme of enzymes was then saturated by bubbling carbon monoxide (Airgas) and the spectra of the saturated enzyme solutions were recorded. Sodium dithionite solution (30 μL, 0.5 M) was then added to reduce ferric ion, and reduced spectra were taken subsequently. CO reduced difference spectra of all P450s were created by […]. Data were further analyzed by Excel. […] The changes in absorbance (ΔA) were determined by subtracting the absorbance at ~420 nm from that at ~390 nm. Data were then fitted to the equation of ΔA = ΔAmax[L]/(Kd + [L]) using GraphPad Prism 4.
(§2) in 25 mM Tris-HCl, pH 8.0. All experiments were repeated at least three times. Data
(§3) were fitted to the Michaelis-Menten equation.

TB14 [2] = molecular target: T2, TB14 (UniProt C9ZDC6+P14779); test: Binding affinities of Trp analogues toward TB14 (spectral shift); settings: for Kd: read-out: TB14 Kd, 1.5 µM enzyme, 25 mM Tris-HCl pH 8.0
T2 construct: BM3R: reductase domain of CYP102A1 (P450BM3); made in house; host or cells: E. coli BL21-GOLD (DE3), pET28b-TxtE-BM3R
Protocol: as §1
(§4) in 25 mM Tris-HCl, pH 8.0. All experiments were repeated at least three times. […]

TB14 [3] = molecular target: T2, TB14; test: Nitration of Trp analogues by TB14 (HPLC, 45 min); type: biochemical; settings: for nitrated a significant amount by TB14: after 45 mins, 0.5 mM substrate, 1.5 µM P450
Protocol: (§5) The reactions were prepared as described previously and incubated at 20 °C, 300 rpm for 45 minutes. All experiments were repeated at least three times.
(§6) After centrifugation, 10 μl solutions were analyzed by HPLC. […] All reactions were independently repeated at least three times. In TTN and coupling efficiency studies, 0.5 µM P450s and 0.5 mM substrate were used. […] All experiments were performed at least in triplication.

TxtE [4] = molecular target: T3, TxtE (Streptomyces scabiei, UniProt C9ZDC6); type: biochemical, Streptomyces scabies; design: made in house; settings: for nitrated a significant amount by TxtE: after 45 mins, 0.5 mM substrate, 1.5 µM P450
Protocol: as §5, §6

TB14 [5] = molecular target: T2, TB14; test: Scaled-up TB14 nitration of 4-Me-DL-Trp (Marfey's derivatization, NMR); type: biochemical; settings: scaled-up reaction with 4-Me-DL-Trp
Protocol: The reactions in a 200-ml flask were incubated at 20 °C, 250 rpm overnight, and then terminated by 20 mL methanol or acidification to pH 1.0 with 6 M HCl. After centrifugation, the supernatants were concentrated in vacuo and then freeze-dried. The products were redissolved in 3 ml methanol for semi-preparation[22].
4-Me-Trp and nitrated 4-Me-Trp from enzyme reactions were reacted with Marfey’s reagent following manufacture manual (Thermo Scientific). Derivatized products were analyzed by LC-MS with A SHIMADZU Prominence UPLC system fitted with a Waters SymmetryShieldTM RP-C18 column (3.5 µm, 4.6 × 100 mm) and a Linear Ion Trap Quadrupole LC/MS/MS Mass Spectrometer system. The flow rate was 0.5 mL/min. The column was eluted with 90% solvent A (0.05 M triethylammonium acetate, pH 3.0), 10% solvent B (acetonitrile) for 2 min and then with a linear gradient of 10–50% solvent B for 60 min. The column was then cleaned by 50% solvent B for 5 min followed by a re-equilibration with 10% solvent B for 2 min. For MS detection, the turbo spray conditions used were: curtain gas: 30 psi; ion spray voltage: 5000 V; temperature: 550 °C; ion source gas 1: 30 psi; ion source gas 2: 20 psi.

TB14 [6] = molecular target: T4, TB14 (UniProt C9ZDC6); test: Binding affinities of Trp analogues toward TB14 (spectral shift); settings: 1.5 µM enzyme, 25 mM Tris-HCl pH 8.0
T4 construct: BM3R: reductase domain of CYP102A1 (P450BM3); made in house; host or cells: E. coli BL21-GOLD (DE3), pET28b-TxtE-BM3R
Protocol: as §1, §4

TxtE [7] = molecular target: T3, TxtE; test: biochemical; type: binding, Streptomyces scabies; design: made in house; host or cells: E. coli BL21-GOLD (DE3), pET28b
Protocol: as §1, §2, §3

TB15 = test: UV-Vis difference spectroscopy (Type I shift, ΔA ~390 minus ~420 nm) titration of Trp to 1.5 µM purified P450 in 25 mM Tris-HCl, pH 8.0, hyperbolic fit; at least three repeats.; type: binding; settings: n = 3
Protocol: (§7) We next determined coupling efficiency to evaluate the extent to which linker length and structural swapping may affect electron transfer compatibility during nitration reaction (Table 1). […] Additionally, we determined total turnover number (TTN) as nmol product per nmol P450 in all reactions (Table 1).
as §1

TB13-Q = test: as above; type: binding; settings: n = 3
Protocol: as §7, §1

TB19 = test: as above; type: binding; settings: n = 3
Protocol: as §7, §1

TB27 = test: as above; type: binding; settings: n = 3
Protocol: as §7, §1

TB16 = test: as above; type: binding; settings: n = 3
Protocol: as §7, §1

TB12 = test: as above; type: binding; settings: n = 3
Protocol: as §7, §1

TB13 = test: as above; type: binding; settings: n = 3
Protocol: as §7, §1

TB11 = test: as above; type: binding; settings: n = 3
Protocol: as §7, §1

TB22 = test: as above; type: binding; settings: n = 3
Protocol: as §7, §1

TB24 = test: as above; type: binding; settings: n = 3
Protocol: as §7, §1

TB13S = test: as above; type: binding; settings: n = 3
Protocol: as §7, §1

TB17 = test: as above; type: binding; settings: n = 3
Protocol: as §7, §1

[8] = read-out: TxtE Kd (µM), TB14 Kd

NC(Cc1c[nH]c2cccc(F)c12)C(=O)O (racemic) [4-F-Trp, 4-fluoro-DL-tryptophan]
Kd (TxtE [1]): 190 µM

Cc1cccc2[nH]cc(CC(N)C(=O)O)c12 (racemic) [4-Me-Trp, 4-Me-DL-Tryptophan]
binding affinity, times higher than 4-F-DL-Trp (TB14 [2]; from Table S1): 13 times
Kd (TB14 [2]): 14 ± 1 µM
nitration by TB14, times favoured over 4-F-DL-Trp (TB14 [3]; 45 min, Fig. 3): about 8 times
nitrated a significant amount by TB14 (TB14 [3]): nitrated a significant amount
nitrated a significant amount by TxtE (TxtE [4]): nitrated a significant amount

Cc1cccc2[nH]cc(CC(N)C(=O)O)c12 (racemic) [4-Me-Trp, 4-methyl-DL-tryptophan]
Kd (TxtE [1]): 10 µM

Cc1ccc2[nH]cc(CC(N)C(=O)O)c2c1 (racemic) [5-Me-Trp, 5-methyl-DL-tryptophan]
Kd (TxtE [1]; [8]): 35 µM

COc1ccc2[nH]cc(CC(N)C(=O)O)c2c1 (racemic) [5-MeO-Trp, 5-methoxy-DL-tryptophan]
Kd (TxtE [1]; [8]): 29 µM

NC(Cc1c[nH]c2cc(F)ccc12)C(=O)O (racemic) [6-F-Trp, 6-fluoro-DL-tryptophan]
Kd (TxtE [1]): 73 µM

Cc1cccc2c(CC(N)C(=O)O)c[nH]c12 (racemic) [7-Me-Trp, 7-methyl-DL-tryptophan]
Kd (TxtE [1]; [8]): 13 µM

O=C(O)C1Cc2c([nH]c3ccccc23)CN1 (stereo not drawn) [2,3,4,9-Tetrahydro-1H-β-carboline-3-carboxynate]
Kd (TB14 [2]): 730 ± 86 µM

O=C(O)C1Cc2c([nH]c3ccccc23)CN1 (stereo not drawn) [2,3,4,9-tetrahydro-1H-β-carboline-3-carboxylate]
Kd (TxtE [1]; [8]): 580 µM

NC(Cc1c[nH]c2cccc(F)c12)C(=O)O (centres unmarked) [4-F-Trp]
Kd (TB14 [2]): 180 ± 13 µM
nitrated a significant amount by TB14 (TB14 [3]): not

Cc1cccc2[nH]cc(C[C@H](N)C(=O)O)c12 [4-Me-L-Trp]
consumption of substrate in the TB14 reaction (TB14 [5]): ~ 85%

N[C@@H](Cc1c[nH]c2ccc(F)cc12)C(=O)O [5-F-L-Trp, 5-fluoro-L-tryptophan]
Kd (TxtE [1]): 84 µM

N[C@@H](Cc1c[nH]c2ccc(F)cc12)C(=O)O [5-F-L-Trp]
Kd (TB14 [2]): 78 ± 6 µM
substrate ranking in the TB14 reaction (TB14 [3]; 45 min): comparable to Trp as the best
nitrated a significant amount by TB14 (TB14 [3]): nitrated a significant amount
substrate ranking in the TxtE reaction (TxtE [4]; 45 min): best substrate of TxtE
nitrated a significant amount by TxtE (TxtE [4]): nitrated a significant amount

Cc1ccc2[nH]cc(CC(N)C(=O)O)c2c1 (centres unmarked) [5-Me-Trp]
Kd (TB14 [2]): 30 ± 1 µM
nitrated a significant amount by TB14 (TB14 [3]): nitrated a significant amount
nitrated a significant amount by TxtE (TxtE [4]): nitrated a significant amount

COc1ccc2[nH]cc(CC(N)C(=O)O)c2c1 (centres unmarked) [5-MeO-Trp]
Kd (TB14 [2]): 26 ± 2 µM
nitrated a significant amount by TB14 (TB14 [3]): not

N[C@@H](Cc1c[nH]c2ccc(O)cc12)C(=O)O [5-OH-L-Trp, 5-hydroxy-L-tryptophan]
Kd (TxtE [1]; [8]): 340 µM

N[C@@H](Cc1c[nH]c2ccc(O)cc12)C(=O)O [5-OH-L-Trp]
Kd (TB14 [2]): 450 ± 16 µM

N[C@@H](Cc1c[nH]c2cc(F)ccc12)C(=O)O [6-F-Trp]
Kd (TB14 [2]): 65 ± 5 µM
nitrated a significant amount by TB14 (TB14 [3]): nitrated a significant amount
nitrated a significant amount by TxtE (TxtE [4]): nitrated a significant amount

N[C@@H](Cc1c[nH]c2ncccc12)C(=O)O [7-Azatryptophan]
Kd (TB14 [6]): 26 ± 1 µM
Kd (TxtE [7]): 17 ± 1 µM

Cc1cccc2c(CC(N)C(=O)O)c[nH]c12 (centres unmarked) [7-Me-Trp]
Kd (TB14 [2]): 11 ± 1 µM
nitrated a significant amount by TB14 (TB14 [3]): not

N[C@H](Cc1c[nH]c2ccccc12)C(=O)O [D-Trp, D-tryptophan]
Kd (TxtE [1]; [8]): 430 µM

N[C@H](Cc1c[nH]c2ccccc12)C(=O)O [D-Trp]
Kd (TB14 [2]): 470 ± 25 µM

O=C(O)C(=O)Cc1c[nH]c2ccccc12 [Indole-3-pyruvic acid]
Kd (TB14 [6]): 480 ± 32 µM
Kd (TxtE [7]): 390 ± 43 µM

N[C@@H](Cc1c[nH]c2ccccc12)C(=O)O [L-Trp, L-tryptophan]
Kd (TB14 [6]): 17 ± 1 µM
Kd (TxtE [7]): 25 ± 1 µM

N[C@H](CO)Cc1c[nH]c2ccccc12 [L-tryptophanol]
Kd (TB14 [2]): 280 ± 43 µM
Kd (TxtE [1]; [8]): 220 µM

NCCc1c[nH]c2ccc(O)cc12 [Serotonin]
Kd (TB14 [6]): 310 ± 39 µM
Kd (TxtE [7]): 320 ± 31 µM

N[C@@H](Cc1c[nH]c2ccccc12)C(=O)O [Trp, L-tryptophan]
Kd (TB15): 21.4 ± 0.9 µM
Kd (TB13-Q): 21.5 ± 0.8 µM
Kd (TB19): 16 ± 0.8 µM
Kd (TB27): 16.2 ± 1.1 µM
Kd (TB16): 18.9 ± 1 µM
Kd (TB12): 22.3 ± 1.4 µM
Kd (TB13): 21.3 ± 0.4 µM
Kd (TB11): 16.2 ± 0.6 µM
Kd (TB22): 27.1 ± 1.3 µM
Kd (TB24): 14.9 ± 0.3 µM
Kd (TB13S): 19.3 ± 0.6 µM
Kd (TB17): 15.5 ± 0.6 µM

NCCc1c[nH]c2ccccc12 [Tryptamine]
Kd (TB14 [6]): 60 ± 8 µM
Kd (TxtE [7]): 68 ± 6 µM

c1ccc2[nH]ccc2c1 [indole]
interaction with TB14 in spectroscopic analysis (Type I spectral shift) (TB14 [2]): no detectable level of interaction
interaction with TxtE in spectroscopic analysis (TxtE [7]): no detectable level of interaction

CC(N)(Cc1c[nH]c2ccccc12)C(=O)O (stereo not drawn) [α-Me-Trp]
Kd (TB14 [2]): 95 ± 9 µM
nitrated a significant amount by TB14 (TB14 [3]): not
Kd (TxtE [7]; read-out: TxtE Kd, 1.5 µM enzyme, 25 mM Tris-HCl pH 8.0): 100 ± 4 µM
